Results published in patent US9737260B2, “Methods for determining total body skeletal muscle mass” (GLAXOSMITHKLINE LLC, priority 2011, dated 2017).

Assays:
[1] = rat, oral dose of 0.475 mg D3-creatine per rat
[2] = Dexamethasone-induced skeletal muscle atrophy in rats: lean body mass by QMR and creatine pool size by D3-creatine dilution; conditions: 22 week-old rats, once daily subcutaneous for 2 weeks; P<0.001 vs vehicle (459±45 g)

[2H]C([2H])([2H])N(CC(=O)O)C(=N)N [D3-creatine]
absorption of oral dose [1]: rapidly and completely absorbed
D3-creatine tracer dose available to equilibrate with the body creatine pool ([1]; minimal urinary spillage): > 99%

C[C@@H]1C[C@H]2[C@@H]3CCC4=CC(=O)C=C[C@]4(C)[C@@]3(F)[C@@H](O)C[C@]2(C)[C@@]1(O)C(=O)CO [dexamethasone]
lean body mass (LBM) [2]: 353 ± 32 g
